{"source": "patent US20110224210A1", "about": "“NOVEL BIS-AMIDES AS ANTI-MALARIAL AGENTS” (priority 2008, published 2011)", "data": [{"test_system": "P. falciparum K1 (strain resistant to chloroquine and pyrimethamine), erythrocytic stages", "experiment": "Plasmodium falciparum in vitro assay, [3H] hypoxanthine incorporation", "format": "cell-based", "conditions": "Plasmodium falciparum, K1, P. falciparum strain K1; [3H] hypoxanthine incorporation; read-out: IC50 (nM) on K1", "description": "In Vitro Antimalarial Activity: Plasmodium falciparum In Vitro Assay\nIn vitro activity against erythrocytic stages of P. falciparum is determined using a [^3H] hypoxanthine incorporation assay. One strain resistant to chloroquine and pyrimethamine (P. falciparum K1) is used in the assays, and all test compounds are compared for activity with the standard drugs chloroquine (sigma C6628) and artemisinin (sigma-36, 159-3). Compounds are diluted in DMSO to 1 mM and added to parasite cultures incubated in RPMI 1640 medium without hypoxanthine, supplemented with HEPES (5.94 g/L), NaHCO3 (2.1 g/L), neomycin (100 U/mL), Albumax (5 g/L) and washed human red cells at 2.5% haematocrit (0.3% parasitaemia). Seven serial doubling dilutions of each compound are prepared in 96-well microtitre plates and incubated in a humidifying atmosphere at 37° C.; 4% CO2, 3% O2, 93% N2.\nAfter 48 h, 50 μl of [3H] hypoxanthine (0.5 μCi) is added to each well of a plate. The plates are incubated for a further 24 h under the same conditions. The plates are then harvested with a Betaplate cell harvester (Wallac) and washed with distilled water. The dried filters are inserted into a plastic foil with 10 mL of scintillation fluid, and counted in a Betaplate liquid scintillation counter. IC50 values are calculated from sigmoidal inhibition curves using Microsoft Excel.", "units": {"IC50": "nM"}, "values": [{"smiles": "COCCN(C)C(=O)[C@H](Cc1ccccc1)N(Cc1ccc(N2CCN(C(C)=O)CC2)cc1)C(=O)C=Cc1cnc(OC)nc1", "note": "[Example 118, (S)-N-[4-(4-Acetyl-piperazin-1-yl)-benzyl]-N-{1-[(2-methoxy-ethyl)-methyl-carbamoyl]-2-phenyl-ethyl}-3-(2-methoxy-pyrimidin-5-yl)-acrylamide]", "IC50": 104}, {"smiles": "COCCN(C)C(=O)[C@H](Cc1ccccc1)N(Cc1ccc(N2CCN(C(C)=O)CC2)cc1)C(=O)C=Cc1nc(C)oc1C", "note": "[Example 110, (S)-N-[4-(4-Acetyl-piperazin-1-yl)-benzyl]-3-(2,5-dimethyl-oxazol-4-yl)-N-{1-[(2-methoxy-ethyl)-methyl-carbamoyl]-2-phenyl-ethyl}-acrylamide]", "IC50": 324}, {"smiles": "CN(C)C1CCN(C(=O)C(Cc2ccnn2C)N(Cc2ccc(-c3ccncc3)cc2)C(=O)C=Cc2ccc(C(F)(F)F)cc2)CC1", "note": "(racemic) [Example 141]", "IC50": 339}, {"smiles": "COCCN(C)C(=O)[C@H](Cc1ccccc1)N(Cc1ccc(-c2cncnc2)cc1)C(=O)C=Cc1cnc(OC)nc1", "note": "[Example 129, (S)-N-{1-[(2-Methoxy-ethyl)-methyl-carbamoyl]-2-phenyl-ethyl}-3-(2-methoxy-pyrimidin-5-yl)-N-(4-pyrimidin-5-yl-benzyl)-acrylamide]", "IC50": 19}, {"smiles": "CC(=O)N1CCN(c2ccc(CN(C(=O)C=Cc3ccc(C(F)(F)F)cc3)[C@@H](Cc3ccccc3)C(=O)N(C)CCOCc3ccc(OC(F)F)cc3)cc2)CC1", "note": "[Example 188, (S)-N-[4-(4-Acetyl-piperazin-1-yl)-benzyl]-N-(1-{[2-(4-difluoromethoxy-benzyloxy)-ethyl]-methyl-carbamoyl}-2-phenyl-ethyl)-3-(4-trifluoromethyl-phenyl)-acrylamide, formic acid]", "IC50": 53}, {"smiles": "COCCN(C)C(=O)[C@H](Cc1ccccc1)N(Cc1ccc(-c2cncnc2)cc1)C(=O)C=Cc1c(C)noc1C", "note": "[Example 124, (S)-3-(3,5-Dimethyl-isoxazol-4-yl)-N-{1-[(2-methoxy-ethyl)-methyl-carbamoyl]-2-phenyl-ethyl}-N-(4-pyrimidin-5-yl-benzyl)-acrylamide]", "IC50": 110}, {"smiles": "CC(=O)N1CCN(c2ccc(CN(C(=O)C=Cc3ccc(C(F)(F)F)nc3)[C@@H](Cc3ccccc3)C(=O)N(C)CCOCc3cc(C)on3)cc2)CC1", "note": "[Example 209, (S)-N-[4-(4-Acetyl-piperazin-1-yl)-benzyl]-N-(1-{methyl-[2-(5-methyl-isoxazol-3-ylmethoxy)-ethyl]-carbamoyl}-2-phenyl-ethyl)-3-(6-trifluoromethyl-pyridin-3-yl)-acrylamide]", "IC50": 31}, {"smiles": "CN(CCN(C)C(=O)[C@H](Cc1ccccc1)N(Cc1ccc(N2CCOCC2)cc1)C(=O)C=Cc1ccc(C(F)(F)F)cc1)Cc1ccc(O)cc1", "note": "[Example 256, (S)-N-[1-({2-[(4-Hydroxy-benzyl)-methyl-amino]-ethyl}-methyl-carbamoyl)-2-phenyl-ethyl]-N-(4-morpholin-4-yl-benzyl)-3-(4-trifluoromethyl-phenyl)-acrylamide]", "IC50": 39}, {"smiles": "CC(=O)N1CCN(c2ccc(CN(C(=O)C=Cc3ccc(C(F)(F)F)cc3)[C@@H](Cc3ccccc3)C(=O)N(C)CCN(C)Cc3nccs3)cc2)CC1", "note": "[Example 248, (S)-N-[4-(4-Acetyl-piperazin-1-yl)-benzyl]-N-(1-{methyl-[2-(methyl-thiazol-2-ylmethyl-amino)-ethyl]-carbamoyl}-2-phenyl-ethyl)-3-(4-trifluoromethyl-phenyl)-acrylamide]", "IC50": 21}, {"smiles": "O=C([C@H](Cc1ccccc1)N(Cc1ccc(-c2ccccn2)cc1)C(=O)C=Cc1ccc(C(F)(F)F)cc1)N1CCC(CN2CCCC2)CC1", "note": "[Example 52, (S)-N-[1-Benzyl-2-oxo-2-(4-pyrrolidin-1-ylmethyl-piperidin-1-yl)-ethyl]-N-(4-pyridin-2-yl-benzyl)-3-(4-trifluoromethyl-phenyl)-acrylamide]", "IC50": 92}, {"smiles": "COCCN(C)C(=O)C(Cc1ccn(C)n1)N(Cc1ccc(-c2ccncc2)cc1)C(=O)C=Cc1ccc(C(F)(F)F)cc1", "note": "(racemic) [Example 167]", "IC50": 41}, {"smiles": "COCCN(C)C(=O)[C@H](Cc1ccccc1)N(Cc1ccc(N2CCOCC2)cc1)C(=O)C=Cc1ccc(OC)nc1", "note": "[Example 71, (S)-N-{1-[(2-Methoxy-ethyl)-methyl-carbamoyl]-2-phenyl-ethyl}-3-(6-methoxy-pyridin-3-yl)-N-(4-morpholin-4-yl-benzyl)-acrylamide]", "IC50": 54}, {"smiles": "Cc1ccc(CN(C)CCN(C)C(=O)[C@H](Cc2ccccc2)N(Cc2ccc(-c3ccccn3)cc2)C(=O)C=Cc2ccc(C(F)(F)F)cc2)c(C)c1", "note": "[Example 234, (S)-N-[1-({2-[(2,4-Dimethyl-benzyl)-methyl-amino]-ethyl}-methyl-carbamoyl)-2-phenyl-ethyl]-N-(4-pyridin-2-yl-benzyl)-3-(4-trifluoromethyl-phenyl)-acrylamide]", "IC50": 64}, {"smiles": "COCCN(C)C(=O)[C@H](Cc1ccccc1)N(Cc1ccc(-c2ccncc2)cc1)C(=O)C=Cc1csc(C)n1", "note": "[Example 94, (S)-N-{1-[(2-Methoxy-ethyl)-methyl-carbamoyl]-2-phenyl-ethyl}-3-(2-methyl-thiazol-4-yl)-N-(4-pyridin-4-yl-benzyl)-acrylamide]", "IC50": 15}, {"smiles": "Cc1nc(C=CC(=O)N(Cc2ccc(-c3ccncc3)cc2)[C@@H](Cc2ccccc2)C(=O)N2CCC(N(C)C)CC2)c(C)o1", "note": "[Example 25, (S)-N-[1-Benzyl-2-(4-dimethylamino-piperidin-1-yl)-2-oxo-ethyl]-3-(2,5-dimethyl-oxazol-4-yl)-N-(4-pyridin-4-yl-benzyl)-acrylamide]", "IC50": 90}, {"smiles": "CN(C)C1CCN(C(=O)[C@H](Cc2ccccc2)N(Cc2ccc(-c3ccccn3)cc2)C(=O)C=Cc2ccc(C(F)(F)F)cc2)CC1", "note": "[Example 6, (S)-N-[1-Benzyl-2-(4-dimethylamino-piperidin-1-yl)-2-oxo-ethyl]-N-(4-pyridin-2-yl-benzyl)-3-(4-trifluoromethyl-phenyl)-acrylamide]", "IC50": 54}, {"smiles": "Cc1noc(C)c1C=CC(=O)N(Cc1ccc(N2CCOCC2)cc1)[C@@H](Cc1ccccc1)C(=O)N1CCC(N(C)C)CC1", "note": "[Example 3, (S)-N-[1-Benzyl-2-(4-dimethylamino-piperidin-1-yl)-2-oxo-ethyl]-3-(3,5-dimethyl-isoxazol-4-yl)-N-(4-morpholin-4-yl-benzyl)-acrylamide]", "IC50": 436}, {"smiles": "CN(C)[C@@H]1CCN(C(=O)[C@H](Cc2ccccc2)N(Cc2ccc(-c3ccccn3)cc2)C(=O)C=Cc2ccc(C(F)(F)F)cc2)C1", "note": "[Example 53, N-[(S)-1-Benzyl-2-((R)-3-dimethylamino-pyrrolidin-1-yl)-2-oxo-ethyl]-N-(4-pyridin-2-yl-benzyl)-3-(4-trifluoromethyl-phenyl)-acrylamide]", "IC50": 14}, {"smiles": "CN(C)C1CCN(C(=O)[C@H](Cc2ccccc2)N(Cc2ccc(-c3ccncc3)cc2)C(=O)C=Cc2ccc(C(F)(F)F)cn2)CC1", "note": "[Example 30, (S)-N-[1-Benzyl-2-(4-dimethylamino-piperidin-1-yl)-2-oxo-ethyl]-N-(4-pyridin-4-yl-benzyl)-3-(5-trifluoromethyl-pyridin-2-yl)-acrylamide]", "IC50": 34}, {"smiles": "CN(CCN(C)C(=O)[C@H](Cc1ccccc1)N(Cc1ccc(N2CCOCC2)cc1)C(=O)C=Cc1ccc(C(F)(F)F)cc1)Cc1cccc(OCCO)c1", "note": "[Example 260, (S)-N-{1-[(2-{[3-(2-Hydroxy-ethoxy)-benzyl]-methyl-amino}-ethyl)-methyl-carbamoyl]-2-phenyl-ethyl}-N-(4-morpholin-4-yl-benzyl)-3-(4-trifluoromethyl-phenyl)-acrylamide]", "IC50": 14}, {"smiles": "COCCN(C)C(=O)[C@H](Cc1ccccc1)N(Cc1ccc(N2CCOCC2)cc1)C(=O)C=Cc1cnc(OC)nc1", "note": "[Example 72, (S)-N-{1-[(2-Methoxy-ethyl)-methyl-carbamoyl]-2-phenyl-ethyl}-3-(2-methoxy-pyrimidin-5-yl)-N-(4-morpholin-4-yl-benzyl)-acrylamide]", "IC50": 344}, {"smiles": "COc1ccc(COCCN(C)C(=O)[C@H](Cc2ccccc2)N(Cc2ccc(N3CCOCC3)cc2)C(=O)C=Cc2ccc(C(F)(F)F)cc2)cc1F", "note": "[Example 196, (S)-N-(1-{[2-(3-Fluoro-4-methoxy-benzyloxy)-ethyl]-methyl-carbamoyl}-2-phenyl-ethyl)-N-(4-morpholin-4-yl-benzyl)-3-(4-trifluoromethyl-phenyl)-acrylamide]", "IC50": 16}, {"smiles": "C=CCOCCN(C)C(=O)[C@H](Cc1ccccc1)N(Cc1ccc(N2CCN(C(C)=O)CC2)cc1)C(=O)C=Cc1ccc(C(F)(F)F)cc1", "note": "[Example 212, (S)-N-[4-(4-Acetyl-piperazin-1-yl)-benzyl]-N-{1-[(2-allyloxy-ethyl)-methyl-carbamoyl]-2-phenyl-ethyl}-3-(4-trifluoromethyl-phenyl)-acrylamide]", "IC50": 20}, {"smiles": "Cc1ccc(C=CC(=O)N(Cc2ccc(-c3ccncc3)cc2)[C@@H](Cc2ccccc2)C(=O)N2CCC(N(C)C)CC2)cn1", "note": "[Example 27, (S)-N-[1-Benzyl-2-(4-dimethylamino-piperidin-1-yl)-2-oxo-ethyl]-3-(6-methyl-pyridin-3-yl)-N-(4-pyridin-4-yl-benzyl)-acrylamide]", "IC50": 67}, {"smiles": "COCCN(C)C(=O)C(CN1CCN(C)CC1)N(Cc1ccc(-c2ccccn2)cc1)C(=O)C=Cc1ccc(C(F)(F)F)cc1", "note": "(racemic) [Example 278]", "IC50": 137}]}]}
